Values of other authors, collected in the Kinase Knowledgebase extract (Sharma et al. 2016).

Target: MAPK14 (human) (UniProt Q16539)
Assay: Assessment of MAPK14 Kinase Activity

Chain of MAPK14 (human) (Q16539 whole entry, looked up): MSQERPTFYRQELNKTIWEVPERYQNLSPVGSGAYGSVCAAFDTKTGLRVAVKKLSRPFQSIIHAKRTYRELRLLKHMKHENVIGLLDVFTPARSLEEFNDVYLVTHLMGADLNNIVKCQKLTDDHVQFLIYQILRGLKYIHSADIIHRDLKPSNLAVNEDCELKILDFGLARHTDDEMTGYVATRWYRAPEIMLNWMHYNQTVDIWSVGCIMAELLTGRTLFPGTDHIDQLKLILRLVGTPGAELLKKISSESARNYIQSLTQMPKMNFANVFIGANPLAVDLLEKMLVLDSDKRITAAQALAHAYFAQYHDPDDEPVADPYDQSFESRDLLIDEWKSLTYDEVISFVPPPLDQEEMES

SMILES | IC50 [nM]
Cc1ccc(C(=O)NC2CC2)cc1-c1cc2cnn(-c3ccccc3C)c2n(C)c1=O | 1.9
CCn1c(=O)c(-c2cc(C(=O)NC3CC3)ccc2C)cc2cnn(-c3ccc(F)cc3F)c21 | 0.6
CNc1noc2c(-c3cc4cnn(-c5c(F)cccc5F)c4n(C)c3=O)c(C)ccc12 | 2
Cn1c(=O)cc(Nc2ccc(F)cc2F)c2cnn(-c3ccc(F)cc3F)c21 | 1000
Cn1c(=O)cc(NC2CCOCC2)c2cnn(-c3cccc(F)c3)c21 | 1000
Cn1c(=O)cc(Nc2ccc(F)cc2)c2cnn(-c3c(F)cccc3F)c21 | 1000
Cc1ccc(C(=O)NC2(C)CC2)cc1-c1cc2cnn(-c3c(F)cccc3F)c2n(C)c1=O | 1.7
Cc1ccc(C(=O)NC2CC2)cc1-c1cc2cnn(-c3ncccc3C(F)(F)F)c2n(C)c1=O | 2.3
Cc1ccc(C(=O)Nc2ccon2)cc1-c1cc2cnn(-c3c(F)cccc3F)c2n(C)c1=O | 1
Cc1ccc(C(=O)O)cc1Nc1cc(=O)n(C)c2c1cnn2-c1ccc(F)cc1F | 1000
Cc1c(F)cc(C(=O)NC2CC2)cc1-c1cc2cnn(-c3c(F)cccc3F)c2n(C)c1=O | 0.8
Cc1ccc(C(=O)NC2CC2)cc1-c1cc2cnn(-c3cc(F)ccc3F)c2n(C)c1=O | 1.9
Cc1ccc(C(N)=O)cc1-c1cc2cnn(-c3c(F)cccc3F)c2n(C)c1=O | 1.5
Cc1ccc(C(=O)NC2CC2)cc1-c1cc2cnn(-c3ccccc3Cl)c2n(C)c1=O | 0.899
